According to patent publication US20250223301A1, “KINASE INHIBITORS, PREPARATION METHODS AND USES THEREOF” (InventisBio Co., Ltd., priority 2022, published 2025):

How the values were obtained:
Jurkat cells = assay: Jurkat IL-2 assay; assay type: cell-based; conditions: Homo sapiens, anti-CD3/CD28 stimulation overnight, IL-2 level
Protocol: Jurkat cells (ATCC) were cultured in RPMI-1640 medium supplemented with 10% FBS. In a 96-well plate, −250,000 cells in 130 uL were added to each assay well. Ten microliter compound solution (5 uM to 2.3 nM, 8 points with 3-fold dilution) were added to cells in each well and incubated for 60 minutes at 37° C. Then 10 uL anti-CD3/CD28 antibody (Catalog #10991, Stemcell) were added and incubated overnight at 37° C. After the incubation, 16 uL supernatants were transferred into a new 384-well white assay plate for cytokine analysis. IL-2 was quantified using Human IL-2 kit (Catalog #62HIL02PEG, Cisbio) as described in the manufacturer manual.
(§1) X is log of compound concentration, Y is the IL-2 concentration, increasing as X increases.

PBMC = assay: Human PBMC IL-2 assay; assay type: cell-based; conditions: anti-CD3/CD28 stimulation overnight, IL-2 level
Protocol: PBMC (frozen) obtained from health donor were thawed in RPMI-1640 medium with 10% FBS and incubated for 4 h at 37° C. In a 96-well plate, −200,000 PBMC cells in 160 uL were added to each assay well. Ten microliter compound solution (10 uM to 0.6 nM, 8 points with 4-fold dilution) were added to cells in each well and incubated for 60 minutes at 37° C. Then 30 uL anti-CD3/CD28 antibody (Catalog #10991, Stemcell) were added to cells and incubated overnight at 37° C. After the incubation, 16 uL supernatants were transferred into a new 384-well white assay plate for cytokine analysis. IL-2 level was quantified using Human IL-2 kit (Catalog #62HIL02PEG, Cisbio) as described in the manufacturer manual.
as §1

CC[C@@H]1CN2c3c(c(=O)n(C)c4ccc(C#N)nc34)OC[C@@H]2CN1[C@@H](CC)c1cccc(C(F)(F)F)c1 (stereo in doubt) [Compound 149]
EC50 (Jurkat cells): 76 nM
EC50 (PBMC): 162 nM

CC[C@@H]1CN2c3c(c(=O)n(C)c4ccc(C#N)nc34)N(C)C[C@@H]2CN1[C@@H](CC)c1ccc(C(F)(F)F)cc1 [Compound 221]
EC50 (Jurkat cells): 503 nM
EC50 (PBMC): 624 nM

CC[C@@H]1CN2c3c(c(=O)n(C)c4ccc(C#N)nc34)OC[C@@H]2CN1[C@@H](CC)c1ccc(C)cc1 (stereo in doubt) [Compound 345]
EC50 (Jurkat cells): 18 nM
EC50 (PBMC): 10 nM

CC[C@@H]1CN2c3c(c(=O)n(C)c4ccc(C#N)nc34)OC[C@@H]2CN1[C@@H](CC)c1ccc(C(C)(F)F)cc1 [Compound 289]
EC50 (Jurkat cells): 16 nM
EC50 (PBMC): 7 nM

CC[C@H]1CN([C@@H](CC)c2ccc(F)c(F)c2)[C@H](CC)CN1c1nc2nncn2c2ccc(C#N)nc12 (stereo in doubt) [Compound 200]
EC50 (Jurkat cells): 86 nM
EC50 (PBMC): 42 nM

CC[C@@H]1CN2c3c(c(=O)n(C)c4ccc(C#N)nc34)OC[C@@H]2CN1[C@H](CC)c1ccc(F)c(C)c1 (stereo in doubt) [Compound 336]
EC50 (Jurkat cells): 131 nM
EC50 (PBMC): 163 nM

CC[C@@H]1CN2c3c(c(=O)n(C)c4ccc(C#N)nc34)OC[C@@H]2CN1[C@@H](CC)c1ccc(F)c(C)c1 (stereo in doubt) [Compound 337]
EC50 (Jurkat cells): 12 nM
EC50 (PBMC): 16 nM

CC[C@H]1CN([C@@H](CC)c2ccc(C(F)(F)F)cc2C)[C@H](CC)CN1c1nc2nncn2c2ccc(C#N)nc12 (stereo in doubt) [Compound 137]
EC50 (Jurkat cells): 248 nM
EC50 (PBMC): 96 nM

CC[C@@H]1CN2c3c(c(=O)n(C)c4ccc(C#N)nc34)OC[C@@H]2CN1[C@H](CC)c1ccc(C(F)(F)F)c(Cl)c1 (stereo in doubt) [Compound 245]
EC50 (Jurkat cells): 189 nM
EC50 (PBMC): 314 nM

CC[C@@H]1CN2c3c(c(=O)n(C)c4ccc(C#N)cc34)OC[C@@H]2CN1[C@@H](CC)c1ccc(C(F)(F)F)cc1 [Compound 210]
EC50 (Jurkat cells): 565 nM
EC50 (PBMC): 1720 nM

C[C@@H]1CN2c3c(c(=O)n(C)c4ccc(C#N)nc34)OC[C@@H]2CN1[C@H](C)c1ccc(Cl)cc1 (stereo in doubt) [Compound 270]
EC50 (Jurkat cells): 506 nM
EC50 (PBMC): 616 nM

CC[C@H]1CN([C@@H](CC)c2ccc(F)cc2F)[C@H](CC)CN1c1nc2nncn2c2ccc(C#N)nc12 (stereo in doubt) [Compound 194]
EC50 (Jurkat cells): 104 nM
EC50 (PBMC): 79 nM

CC[C@H](c1ccc(Cl)c(C(F)(F)F)c1)N1C[C@H]2COc3c(c4nc(C#N)ccc4n(C)c3=O)N2C[C@H]1C (stereo in doubt) [Compound 317]
EC50 (Jurkat cells): 21 nM
EC50 (PBMC): 105 nM

CCC(c1ccc(F)c(F)c1)N1C[C@H]2COc3c(c4nc(C#N)ccc4n(C)c3=O)N2C[C@H]1CC (single isomer, unassigned) [Compound 183]
EC50 (Jurkat cells): 77 nM
EC50 (PBMC): 156 nM

CC[C@@H](c1ccc(Cl)c(F)c1)N1C[C@H]2COc3c(c4nc(C#N)ccc4n(C)c3=O)N2C[C@H]1C (stereo in doubt) [Compound 281]
EC50 (Jurkat cells): 118 nM
EC50 (PBMC): 49 nM

C[C@@H]1CN2c3c(c(=O)n(C)c4ccc(C#N)nc34)OC[C@@H]2CN1[C@@H](C)c1ccc(Cl)c(Cl)c1 (stereo in doubt) [Compound 257]
EC50 (Jurkat cells): 132 nM
EC50 (PBMC): 119 nM

CC[C@@H]1CN2c3c(c(=O)n(C)c4ccc(C#N)nc34)OC[C@@H]2CN1[C@@H](c1ccc(F)cc1)c1nc(C2CC2)no1 (stereo in doubt) [Compound 159]
EC50 (Jurkat cells): 12 nM
EC50 (PBMC): 41 nM

CC[C@@H]1CN2c3c(c(=O)n(C)c4ccc(C#N)nc34)OC[C@@H]2CN1[C@H](CC)c1ccc(C)c(Cl)c1 (stereo in doubt) [Compound 342]
EC50 (Jurkat cells): 125 nM
EC50 (PBMC): 280 nM

C[C@@H]1CN2c3c(c(=O)n(C)c4ccc(C#N)nc34)OC[C@@H]2CN1[C@@H](C)c1ccc(Cl)cc1 (stereo in doubt) [Compound 271]
EC50 (Jurkat cells): 79 nM
EC50 (PBMC): 57 nM

CC[C@@H]1CN2c3c(c(=O)n(C)c4ccc(C#N)nc34)OC[C@@H]2CN1[C@@H](CC)c1ccc(F)cc1F (stereo in doubt) [Compound 174]
EC50 (Jurkat cells): 13 nM
EC50 (PBMC): 25 nM

Cn1c(=O)c2c(c3nc(C#N)ccc31)N1CC[C@@H](Oc3ccc(C(F)(F)F)cc3)C[C@H]1CO2 [Compound 325]
EC50 (Jurkat cells): 688 nM
EC50 (PBMC): 561 nM

CC[C@@H]1CN2c3c(c(=O)n(C)c4ccc(C#N)nc34)OC[C@@H]2CN1[C@H](CC)c1ccc(F)c(Cl)c1 (stereo in doubt) [Compound 196]
EC50 (Jurkat cells): 1280 nM
EC50 (PBMC): 846 nM

C[C@H]1c2cccc(-c3ccc(C(F)(F)F)cc3)c2CCN1c1nc(=O)n(C)c2ccc(C#N)nc12 [Compound 241]
EC50 (Jurkat cells): 588 nM
EC50 (PBMC): 1100 nM

Cn1c(=O)nc(N2CCC[C@@]3(CC2)CC(c2ccc(OC(F)(F)F)cc2)=NO3)c2nc(C#N)ccc21 (stereo in doubt) [Compound 140]
EC50 (Jurkat cells): 598 nM
EC50 (PBMC): 259 nM

CC[C@@H]1CN2c3c(c(=O)n(C)c4ccc(C#N)nc34)OC[C@@H]2CN1[C@@H](CC)c1ccc(C#N)cc1 (stereo in doubt) [Compound 161]
EC50 (Jurkat cells): 26 nM
EC50 (PBMC): 53 nM

CC[C@H]1CN([C@H](CC)c2ccc(F)c(F)c2)[C@H](CC)CN1c1nc2nncn2c2ccc(C#N)nc12 (stereo in doubt) [Compound 201]
EC50 (Jurkat cells): 822 nM
EC50 (PBMC): 520 nM

CC[C@@H]1CN2c3c(c(=O)n(C)c4ccc(C#N)nc34)OC[C@@H]2CN1[C@@H](CC)c1c(F)cc(F)cc1F (stereo in doubt) [Compound 147]
EC50 (Jurkat cells): 55 nM
EC50 (PBMC): 96 nM

CC[C@H](c1ccc(C(F)(F)F)c(Cl)c1)N1C[C@H]2COc3c(c4nc(C#N)ccc4n(C)c3=O)N2C[C@H]1C (stereo in doubt) [Compound 323]
EC50 (Jurkat cells): 364 nM
EC50 (PBMC): 474 nM

CC[C@@H](c1ccc(C(F)(F)F)cc1F)N1C[C@H]2COc3c(c4nc(C#N)ccc4n(C)c3=O)N2C[C@H]1C (stereo in doubt) [Compound 306]
EC50 (Jurkat cells): 36 nM
EC50 (PBMC): 30 nM

CC[C@@H]1CN2c3c(c(=O)n(C)c4ccc(C#N)nc34)OC[C@@H]2CN1[C@H](c1ccc(Cl)cc1)c1ccccn1 (stereo in doubt) [Compound 156]
EC50 (Jurkat cells): 124 nM
EC50 (PBMC): 83 nM

CC[C@H]1CN([C@H](c2ccc(C(F)(F)F)cc2)C(C)C)[C@H](CC)CN1c1nc2nncn2c2ccc(C#N)nc12 (stereo in doubt) [Compound 204]
EC50 (Jurkat cells): 202 nM
EC50 (PBMC): 107 nM

CC[C@@H]1CN2c3c(c(=O)n(C)c4ccc(C#N)nc34)OC[C@@H]2CN1[C@H](CC)c1ccc(C)cc1 (stereo in doubt) [Compound 344]
EC50 (Jurkat cells): 96 nM
EC50 (PBMC): 53 nM

C[C@@H]1CN2c3c(c(=O)n(C)c4ccc(C#N)nc34)OC[C@@H]2CN1[C@H](C)c1ccc(C(F)F)cc1 (stereo in doubt) [Compound 314]
EC50 (Jurkat cells): 77 nM
EC50 (PBMC): 22 nM

CC[C@H](c1ccc(Cl)c(Cl)c1)N1C[C@H]2COc3c(c4nc(C#N)ccc4n(C)c3=O)N2C[C@H]1C (stereo in doubt) [Compound 321]
EC50 (Jurkat cells): 223 nM
EC50 (PBMC): 540 nM

CC[C@@H]1CN2c3c(c(=O)n(C)c4ccc(C#N)nc34)OC[C@@H]2CN1[C@@H](CC)c1ccc(Cl)c(C)c1 (stereo in doubt) [Compound 341]
EC50 (Jurkat cells): 6 nM
EC50 (PBMC): 13 nM

CC[C@@H]1CN2c3c(c(=O)n(C)c4ccc(C#N)cc34)OC[C@@H]2CN1[C@H](CC)c1ccc(C(F)(F)F)cc1 [Compound 211]
EC50 (Jurkat cells): 485 nM
EC50 (PBMC): 175 nM

CC[C@@H]1CN2c3c(c(=O)n(C)c4ccc(C#N)nc34)OC[C@@H]2CN1[C@@H](CC)c1ccc(C(F)(F)F)cc1C (stereo in doubt) [Compound 233]
EC50 (Jurkat cells): 287 nM
EC50 (PBMC): 361 nM

C[C@@H]1CN2c3c(c(=O)n(C)c4ccc(C#N)nc34)OC[C@@H]2CN1[C@H](C)c1ccc(C(C)(F)F)cc1 (stereo in doubt) [Compound 303]
EC50 (Jurkat cells): 153 nM
EC50 (PBMC): 105 nM

CCC[C@@H](c1ccc(Cl)cc1)N1C[C@H]2COc3c(c4nc(C#N)ccc4n(C)c3=O)N2C[C@H]1CC (stereo in doubt) [Compound 311]
EC50 (Jurkat cells): 54 nM
EC50 (PBMC): 1 nM

CC[C@@H]1CN2c3c(c(=O)n(C)c4ccc(C#N)nc34)OC[C@@H]2CN1[C@@H](CC)c1ccc(Cl)c(F)c1 (stereo in doubt) [Compound 297]
EC50 (Jurkat cells): 34 nM
EC50 (PBMC): 12 nM

CCC[C@@H]1CN2c3c(c(=O)n(C)c4ccc(C#N)nc34)OC[C@@H]2CN1[C@H](C)c1ccc(C(F)(F)F)cc1 (stereo in doubt) [Compound 158]
EC50 (Jurkat cells): 277 nM
EC50 (PBMC): 579 nM

CC[C@@H]1CN2c3c(c(=O)n(C)c4ccc(C#N)nc34)OC[C@@H]2CN1[C@@H](c1ccc(C(F)(F)F)cc1)C(C)C [Compound 272]
EC50 (Jurkat cells): 256 nM
EC50 (PBMC): 325 nM

CC[C@@H](c1ccc(C(F)(F)F)cc1)N1C[C@H]2COc3c(c4nc(C#N)ccc4n(C)c3=O)N2C[C@H]1C (stereo in doubt) [Compound 179]
EC50 (Jurkat cells): 29 nM
EC50 (PBMC): 58 nM

CC[C@@H]1CN2c3c(c(=O)n(C)c4ccc(C#N)nc34)OC[C@@H]2CN1[C@@H](CC)c1ncc(C(F)(F)F)cn1 [Compound 331]
EC50 (Jurkat cells): 14 nM
EC50 (PBMC): 16 nM
